From patent publication US7420001B2 (Wyeth, priority 2003, dated 2008)

How the values were obtained:
MMP-13 = target: T1, MMP-13 (Homo sapiens, UniProt P45452); test: In-vitro fluorescence assay of MMP-13 activity; type: biochemical; conditions: recombinant human catalytic domain of MMP-13; read-out: MMP-13 IC50
T1 construct: made in house

MMP-2 = target: T2, MMP-2 (Homo sapiens, UniProt P08253); test: In-vitro fluorescence assay of MMP-2 activity; type: biochemical; conditions: recombinant human MMP-2; read-out: MMP-2 IC50
T2 construct: purchased Oncogene Research Products (Calbiochem) PF023
T2 sequence (P08253 110-660): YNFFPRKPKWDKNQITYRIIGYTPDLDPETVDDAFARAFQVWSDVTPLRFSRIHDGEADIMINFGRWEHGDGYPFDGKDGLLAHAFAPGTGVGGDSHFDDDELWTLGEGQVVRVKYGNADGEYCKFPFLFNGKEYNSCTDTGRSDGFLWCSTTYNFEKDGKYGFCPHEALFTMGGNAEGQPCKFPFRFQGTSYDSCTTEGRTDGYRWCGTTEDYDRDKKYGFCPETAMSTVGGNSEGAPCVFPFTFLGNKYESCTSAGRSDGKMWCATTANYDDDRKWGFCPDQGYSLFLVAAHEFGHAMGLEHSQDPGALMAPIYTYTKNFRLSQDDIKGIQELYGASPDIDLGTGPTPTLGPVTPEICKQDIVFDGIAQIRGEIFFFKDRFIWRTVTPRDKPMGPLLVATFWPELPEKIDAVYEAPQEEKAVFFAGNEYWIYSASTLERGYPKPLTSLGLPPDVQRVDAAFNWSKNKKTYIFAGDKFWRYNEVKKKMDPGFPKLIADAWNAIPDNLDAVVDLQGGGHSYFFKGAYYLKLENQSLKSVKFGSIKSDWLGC

| Compound | IC50 (MMP-13) [nM] | IC50 (MMP-2) [nM] |
| --- | --- | --- |
| Cc1c(C(=O)Nc2ccc(-c3ccc(S(=O)(=O)N[C@H](C(=O)O)C(C)C)cc3)cc2)oc2cccc(NS(=O)(=O)c3ccccc3)c12 [Example 71, L-2-{4′-[(4-Benzenesulfonylamino-3-methyl-benzofuran-2-carbonyl)-amino]-biphenyl-4-sulfonylamino}-3-methyl-butyric acid] | 8.1 | 6020 |
| Cc1c(C(=O)Nc2ccc(-c3ccc(S(=O)(=O)N[C@H](C(=O)O)C(C)C)cc3)cc2)oc2cccc(NS(=O)(=O)c3cccs3)c12 [Example 72, L-3-Methyl-2-(4′-{[3-methyl-4-(thiophene-2-sulfonylamino)-benzofuran-2-carbonyl]-amino}-biphenyl-4-sulfonylamino)-butyric acid] | 8.5 | 3980 |
| CC(C)[C@H](NS(=O)(=O)c1ccc(-c2ccc(NC(=O)c3cc4cc(Br)ccc4o3)cc2)cc1)C(=O)O [Example 84, N-[(4′-{[(5-Bromo-1-benzofuran-2-yl)carbonyl]amino}-1,1′-biphenyl-4-yl)sulfonyl]-L-valine] | 0.6 | 0.9 |
| CCc1ccc2oc(C(=O)Nc3ccc(-c4ccc(S(=O)(=O)N[C@H](C(=O)O)C(C)C)cc4)cc3)c(C)c2c1OC [Example 86, N-[(4′-{[(5-Ethyl-4-methoxy-3-methyl-1-benzofuran-2-yl)carbonyl]amino}-1,1′-biphenyl-4-yl)sulfonyl]-L-valine] | 3.8 | 2500 |
| CCc1cccc2oc(C(=O)Nc3ccc(-c4ccc(S(=O)(=O)N[C@H](C(=O)O)C(C)C)cc4)cc3)c(C)c12 [Example 87, N-[(4′-{[(4-Ethyl-3-methyl-1-benzofuran-2-yl)carbonyl]amino}-1,1′-biphenyl-4-yl)sulfonyl]-L-valine] | 2.3 | 1410 |
| CCc1ccc2oc(C(=O)Nc3ccc(-c4ccc(S(=O)(=O)N[C@H](C(=O)O)C(C)C)cc4)cc3)c(C)c2c1OC(C)C [Example 88, N-[(4′-{[(5-Ethyl-4-isopropoxy-3-methyl-1-benzofuran-2-yl)carbonyl]amino}-1,1′-biphenyl-4-yl)sulfonyl]-L-valine] | 27 | 7000 |
| CCc1ccc2oc(C(=O)Nc3ccc(-c4ccc(S(=O)(=O)N[C@H](C(=O)O)C(C)C)cc4)cc3)c(C)c2c1OCc1ccccc1 [Example 89, N-{[4′-({[4-(Benzyloxy)-5-ethyl-3-methyl-1-benzofuran-2-yl]carbonyl}amino)-1,1′-biphenyl-4-yl]sulfonyl}-L-valine] | 67 | 4340 |
| CCc1ccc2oc(C(=O)Nc3ccc(-c4ccc(S(=O)(=O)N[C@H](C(=O)O)C(C)C)cc4)cc3)c(C)c2c1O [Example 90, N-[(4′-{[(5-Ethyl-4-hydroxy-3-methyl-1-benzofuran-2-yl)carbonyl]amino}-1,1′-biphenyl-4-yl)sulfonyl]-L-valine] | 7.1 | 1760 |
| C=Cc1cccc2oc(C(=O)Nc3ccc(-c4ccc(S(=O)(=O)N(C)[C@H](C(=O)O)C(C)C)cc4)cc3)c(C)c12 [Example 98, N-methyl-N-[(4′-{[(3-methyl-4-vinyl-1-benzofuran-2-yl)carbonyl]amino}-1,1′-biphenyl-4-yl)sulfonyl]-L-valine] | 84.1 | 890 |
| Cc1c(C(=O)Nc2ccc(-c3ccc(S(=O)(=O)N(C)[C@H](C(=O)O)C(C)C)cc3)cc2)oc2cccc(C(O)CO)c12 (stereo partly drawn) [Example 99, N-{[4′-({[4-(1,2-dihydroxyethyl)-3-methyl-1-benzofuran-2-yl]carbonyl}amino)-1,1′-biphenyl-4-yl]sulfonyl}-N-methyl-L-valine] | 70 | 13200 |

The next lines start with the values.

| IC50 (MMP-13) [nM] | IC50 (MMP-2) [nM] | Compound |
| --- | --- | --- |
| 14 | 3470 | CCS(=O)(=O)N(C)c1cccc2oc(C(=O)Nc3ccc(-c4ccc(S(=O)(=O)N[C@H](C(=O)O)C(C)C)cc4)cc3)c(C)c12 [Example 70, L-2-(4′-{[4-(Ethanesulfonyl-methyl-amino)-3-methyl-benzofuran-2-carbonyl]-amino}-biphenyl-4-sulfonylamino)-3-methyl-butyric acid] |
| 11.9 | 4770 | Cc1c(C(=O)Nc2ccc(-c3ccc(S(=O)(=O)N[C@H](C(=O)O)C(C)C)cc3)cc2)oc2cccc(N3CCCS3(=O)=O)c12 [Example 73, L-2-(4′-{[4-(1,1-Dioxo-1λ^6-isothiazolidin-2-yl)-3-methyl-benzofuran-2-carbonyl]-amino}-biphenyl-4-sulfonylamino)-3-methyl-butyric acid] |
| 6.9 | 2230 | Cc1c(C(=O)Nc2ccc(-c3ccc(S(=O)(=O)N[C@H](C(=O)O)C(C)C)cc3)cc2)oc2cccc(C3COC(C)(C)O3)c12 (stereo partly drawn) [Example 91, N-{[4′-({[4-(2,2-Dimethyl-1,3-dioxolan-4-yl)-3-methyl-1-benzofuran-2-yl]carbonyl}amino)-1,1′-biphenyl-4-yl]sulfonyl}-L-valine] |
| 25 | 3760 | Cc1c(C(=O)Nc2ccc(-c3ccc(S(=O)(=O)N[C@H](C(=O)O)C(C)C)cc3)cc2)oc2cccc(CO)c12 [Example 92, N-{[4′-({[4-(Hydroxymethyl)-3-methyl-1-benzofuran-2-yl]carbonyl}amino)-1,1′-biphenyl-4-yl]sulfonyl}-L-valine] |
| 4.8 | 1150 | Cc1cccc2oc(C(=O)Nc3ccc(-c4ccc(S(=O)(=O)N[C@H](C(=O)O)C(C)C)cc4)cc3)c(C)c12 [Example 93, N-[(4′-{[(3,4-Dimethyl-1-benzofuran-2-yl)carbonyl]amino}-1,1′-biphenyl-4-yl)sulfonyl]-L-valine] |
| 4.5 | 673 | CC(=O)c1cccc2oc(C(=O)Nc3ccc(-c4ccc(S(=O)(=O)N[C@H](C(=O)O)C(C)C)cc4)cc3)c(C)c12 [Example 94, N-[(4′-{[(4-Acetyl-3-methyl-1-benzofuran-2-yl)carbonyl]amino}-1,1′-biphenyl-4-yl)sulfonyl]-L-valine] |
| 8.4 | 2070 | Cc1c(C(=O)Nc2ccc(-c3ccc(S(=O)(=O)N[C@H](C(=O)O)C(C)C)cc3)cc2)oc2cccc(C(C)O)c12 (stereo partly drawn) [Example 95, N-{[4′-({[4-(1-Hydroxyethyl)-3-methyl-1-benzofuran-2-yl]carbonyl}amino)-1,1′-biphenyl-4-yl]sulfonyl}-L-valine] |
| 4.4 | 625 | C=Cc1cccc2oc(C(=O)Nc3ccc(-c4ccc(S(=O)(=O)N[C@H](C(=O)O)C(C)C)cc4)cc3)c(C)c12 [Example 96, N-[(4′-{[(3-methyl-4-vinyl-1-benzofuran-2-yl)carbonyl]amino}-1,1′-biphenyl-4-yl)sulfonyl]-L-valine] |
| 14 | 2860 | Cc1c(C(=O)Nc2ccc(-c3ccc(S(=O)(=O)N[C@H](C(=O)O)C(C)C)cc3)cc2)oc2cccc(C(O)CO)c12 (stereo partly drawn) [Example 97, N-{[4′-({[4-(1,2-dihydroxyethyl)-3-methyl-1-benzofuran-2-yl]carbonyl}amino)-1,1′-biphenyl-4-yl]sulfonyl}-L-valine] |
| 2.6 | 2400 | COCc1cccc2oc(C(=O)Nc3ccc(-c4ccc(S(=O)(=O)N[C@H](C(=O)O)C(C)C)cc4)cc3)c(C)c12 [Example 100, N-{[4′-({[4-(methoxymethyl)-3-methyl-1-benzofuran-2-yl]carbonyl}amino)-1,1′-biphenyl-4-yl]sulfonyl}-L-valine] |
| 5.8 | 2000 | COC(C)c1cccc2oc(C(=O)Nc3ccc(-c4ccc(S(=O)(=O)N[C@H](C(=O)O)C(C)C)cc4)cc3)c(C)c12 (stereo partly drawn) [Example 101, N-{[4′-({[4-(1-methoxyethyl)-3-methyl-1-benzofuran-2-yl]carbonyl}amino)-1,1′-biphenyl-4-yl]sulfonyl}-L-valine] |
| 5.7 | 1520 | COCCc1cccc2oc(C(=O)Nc3ccc(-c4ccc(S(=O)(=O)N[C@H](C(=O)O)C(C)C)cc4)cc3)c(C)c12 [Example 102, N-{[4′-({[4-(2-methoxyethyl)-3-methyl-1-benzofuran-2-yl]carbonyl}amino)-1,1′-biphenyl-4-yl]sulfonyl}-L-valinate] |
| 3.9 | 78.4 | CC(C)Oc1cccc2oc(C(=O)Nc3ccc(-c4ccc(S(=O)(=O)N[C@H](C(=O)O)C(C)C)cc4)cc3)cc12 [Example 103, N-[(4′-{[(4-Isopropoxy-1-benzofuran-2-yl)carbonyl]amino}-1,1′-biphenyl-4-yl)sulfonyl]-L-valine] |
| 0.7 | 1.5 | COc1ccc2oc(C(=O)Nc3ccc(-c4ccc(S(=O)(=O)N[C@H](C(=O)O)C(C)C)cc4)cc3)cc2c1 [Example 104, N-[(4′-{[(5-methoxy-1-benzofuran-2-yl)carbonyl]amino}-1,1′-biphenyl-4-yl)sulfonyl]-L-valine] |
| 11 | 4220 | CCCOc1cccc2oc(C(=O)Nc3ccc(-c4ccc(S(=O)(=O)N[C@H](C(=O)O)C(C)C)cc4)cc3)c(C)c12 [Example 107, (S)-3-Methyl-2-{4′-[(3-methyl-4-propoxy-benzofuran-2-carbonyl)-amino]-biphenyl-4-sulfonylamino}-butyric acid] |
| 13 | 4290 | Cc1c(C(=O)Nc2ccc(-c3ccc(S(=O)(=O)N[C@H](C(=O)O)C(C)C)cc3)cc2)oc2cccc(OC(C)C)c12 [Example 108, (S)-2-{4′-[(4-Isopropoxy-3-methyl-benzofuran-2-carbonyl)-amino]-biphenyl-4-sulfonylamino}-3-methyl-butyric acid] |
